Bounds are passed on as bounds.

Experimental findings from a melting point compilation (Tetko et al.; mined from patent text by program, amines drawn as free bases though some values may be those of a salt) are described below.

Turning to `CCCCCCCC1OC1CO` (stereo unspecified), the melting point lay in the range of 50 to 51 °C.

In turn, `COc1ccc(C=CC(=O)N(C)O)cc1OC` came in with a melting point of 150 °C.

`C#CCn1ccc2ccccc2c1=O` had a melting point of 104 to 105 °C.

Take `CCOC(=O)c1cn(C2CC2)c2nc(N3C[C@@H](CN)[C@@H](Cl)C3)c(F)cc2c1=O` (relative stereo): the melting point was 163 to 167 °C.

`FC(F)(F)COc1ccc(-c2cc(C(F)(F)F)n3cnc(-c4ccncc4)c3n2)cc1C(F)(F)F` showed a melting point of 269 °C.

Regarding `CCC(O)CNC(=O)c1ccc(C(F)(F)F)c(N)c1` (stereo unspecified), the melting point was 132 to 134 °C.

Compound `COC(=O)Cn1sc2nc(C)cc(C)c2c1=O` registered a melting point of 89 to 91 °C.

On to `Clc1nc(Cl)c2ncn(C3CCCCC3)c2n1`, for which the melting point fell in the range of 116 to 121 °C.

Regarding `CC(=O)c1c(-c2ccccc2)nn(CC2CC2)c(=O)c1Nc1cccc2ncccc12`, the melting point was in the range of 204 to 205 °C.

`COc1cc(COc2nn(-c3ccccc3)cc2C=O)ccc1OCc1nc(-c2ccccc2)sc1C` came in with a melting point of 164 to 165 °C.

Turning to `Cc1cccc(COc2ccc(-c3ccc(C(=O)NC(Cc4ccccc4)C(=O)O)cc3)cc2)c1` (stereo unspecified), the melting point is 204 °C.

On to `CCC(C)(C)NC(Nc1ccc2c(c1)OCO2)=C(C#N)S(C)(=O)=O`, for which the melting point fell in the range of 86 to 88 °C.

Turning to `COc1ccc(OCCCCCN2CCN(Sc3ccc[nH]3)CC2)cc1`, the melting point is 83 to 85 °C.

With `COc1ccc(CCN(C)CCOc2ccc(NC(=O)c3cccc4c(=O)c5cc(F)ccc5sc34)cc2)cc1OC`, the melting point is 145 °C.

`Fc1ccc(CCCC(c2ccc(F)cc2)c2c[nH]cn2)cc1` (stereo unspecified) displayed a melting point of 135 to 137 °C.

Compound `COc1ccc2cc(Nc3ccc(OCc4ccccc4)cc3)ccc2c1` had a melting point of 155 to 157 °C.

As for `Cn1c(COc2ccc(CC3SC(=O)NC3=O)cc2)nc2ccc(Oc3ccc4cccc(NC(=O)NCc5ccccc5)c4c3)cc21` (stereo unspecified), the melting point was 220 to 222 °C.

As for `CCn1cc(C(=O)O)c(=O)c2cc(F)c(N3CCN(C)C(c4cc5cc(Cl)ccc5o4)C3)cc21` (stereo unspecified), the melting point was in the range of 248 to 249 °C.

The compound `C#CCn1c(C)c(CO)sc1=O` showed a melting point of 62 °C.

Turning to `CC(=O)NC1CSC(=S)N(c2cccc(F)c2)C1=O` (stereo unspecified), the melting point lay in the range of 176 to 177 °C.

Regarding `Cc1nc(-c2c(C#N)nn(-c3c(Cl)cc(C(F)(F)F)cc3Cl)c2N)cs1`, the melting point fell in the range of 226 to 228 °C.

For `CCS(=O)(=O)c1ccc(C(=O)O)c(Cl)c1Cl`, the melting point lay in the range of 170 to 172 °C.

In turn, `O=C(O)c1cc(S)n2ncnc2n1` displayed a melting point of 230 to 232 °C.

Regarding `CC(C)(C)c1cc(Cc2cc(C(C)(C)C)cc(C(C)(C)C)c2O)c(O)c(C(C)(C)C)c1`, the melting point lay within 141 to 142 °C.

For `O=C(O)c1ccc(OCc2ccccc2CCc2ccccc2)cc1`, the melting point lay in the range of 178 to 180 °C.

The compound `COc1ccc(CC#N)c2c1OC(C)(C)O2` returned a melting point of 58 to 59 °C.

The compound `O=C1NC(=O)C(=Cc2cc(O)c(O)c(Cl)c2)S1` came in with a melting point of 299 to 301 °C.

In turn, `COc1ccc(Sc2nc(-c3ccccc3)n(Cc3cc4c(cc3Cl)OCO4)c2C=O)cc1` gave a melting point of 116 °C.

Compound `Cc1cccc(-c2[nH]c(C(C)C)nc2-c2cccc(-c3ccc(F)cc3)c2)n1` gave a melting point of 83 to 85 °C.

`CCOC(=O)NC(=O)c1nc(Cl)c(Cl)[nH]1` showed a melting point of 208 °C.

Turning to `C[C@@H](Cn1ncc2ccc3c(c21)O[C@@H](CN=[N+]=[N-])CO3)NC(=O)OC(C)(C)C`, the melting point fell in the range of 134 to 135 °C.

The compound `COc1cccc2c1C(C#N)C2` (stereo unspecified) had a melting point of 58 to 59 °C.

In turn, `COP(=O)(Cc1ccc(NC(=O)/C=C/c2cnn(C)c2-c2ccoc2)cc1)OC` had a melting point of 176 to 177 °C.

On to `Cc1cc(CC#N)cc(CC#N)c1`, for which the melting point fell in the range of 75 to 78 °C.

`Cc1ccc(S(=O)(=O)N2CCCC2c2ccc(C(F)(F)F)cc2)cc1` (racemic): the melting point came to 99 °C.

As to `CCOC(=O)C1=C(CC)N(CCOC(=O)c2ccccc2)C(=O)NC1c1ccccc1` (stereo unspecified), the melting point amounted to 111 °C.

The compound `CCCOc1cc(-c2cc3c(=O)[nH]c(C)nc3cc2C(C)C)ccc1Cl` registered a melting point of 236 °C.

In the case of `CCOC(=O)c1c(N=[N+]=[N-])cc(C(F)(F)F)nc1C(F)(F)F`, the melting point lay in the range of 63 to 64.5 °C.

`CC(C)CC(NC(=O)C(Cc1c[nH]cn1)NC(=O)C(CC(=O)N1CCOCC1)Cc1cccc2ccccc12)C(O)C(=O)OC(C)C` (mixture of isomers) registered a melting point of 95 to 98 °C.

In the case of `COc1ccc(Nc2nc(NC(CO)CO)nc(N(C)C3CCN(C)CC3)n2)cc1Cl`, the melting point worked out at 84 °C.

The compound `CC1=NOC(c2c(S(C)(=O)=O)ccc(C(=O)C3=C(O)CCCC3=O)c2C)C1` (stereo unspecified) gave a melting point of 135 to 140 °C.

Compound `O=C(c1cc2cc(OCCNC[C@H](O)COc3ccccc3Cl)ccc2o1)N1CCCC1` came in with a melting point of 89 to 90 °C.

`CS(=O)(=O)Oc1cc(CC(=O)O)on1` registered a melting point of 101 to 103 °C.

`CCOc1c2ccccc2nc2c1c(C)nn2-c1ccccn1` displayed a melting point of 121 to 123 °C.

With `O=C(O)CCc1cc(F)c2ncc(C(=O)NCc3ccc(Cl)cc3)c(O)c2c1`, the melting point was 284 to 286 °C.

Take `O=C(O)c1ccc(-c2ccc(-c3ccc(C(F)(F)F)cc3)s2)cc1`: the melting point lay in the range of 284 to 285 °C.

In turn, `Cn1nc(-c2ccc(S(C)(=O)=O)cc2)c(-c2ccc(F)cc2)c1OCC(=O)c1ccc(F)cc1` gave a melting point of 166 to 169 °C.

`CCN(C(=O)c1ccccc1C(=O)c1ccc(Cl)cc1)[C@@H]1CCCC[C@@H]1NS(=O)(=O)c1ccc(C)cc1` (relative stereo) yielded a melting point of 178 to 180 °C.

For the compound `Cc1ccc(S(=O)(=O)NCCCC(NS(=O)(=O)c2ccc(-c3ccc(Cl)cc3)cc2)C(=O)O)cc1` (stereo unspecified), the melting point was 62 °C.

Compound `O=C(Nc1c(Cl)ccc2nc(N3CCNCC3)ccc12)C1(C2CCCCC2)CC1` displayed a melting point of 219 °C.

`C/C=C(\c1ccccc1)c1cc2cc(OC)ccc2[nH]1` returned a melting point of 128 to 130 °C.

`Cc1ccc(-c2ccc(-c3ccccc3)s2)s1`: the melting point is 102 °C.

In the case of `Cc1ccc(-c2ccc3c(c2)C=C(C(=O)Nc2ccc(CSC4CCCCC4)cc2)CCO3)cc1`, the melting point was in the range of 161 to 162 °C.

`CC(C)(C)C(NC(=O)c1ccc(Cl)cc1)NC(=NC#N)NCc1cccnc1` (stereo unspecified) showed a melting point of 188 to 189 °C.

As for `c1coc(-c2cnc3[nH]c4ccccc4c3c2)c1`, the melting point was more than 220 °C.

With `O=C(Nc1ccc(Cl)c(C(F)(F)F)c1)Nc1ccc2ncsc2c1`, the melting point lay in the range of 225 to 228 °C.

Turning to `CCCCOCCOc1ccc(-c2cnc(N3CCCC3)c(/C=C(\C)C(=O)O)c2)cc1`, the melting point lay in the range of 106 to 107 °C.

Regarding `COc1cc(Cl)nnc1NS(=O)(=O)c1ccc(Cl)s1`, the melting point fell in the range of 120 to 122 °C.

The compound `CNC(=O)Oc1cc(C)c(NC(=O)C(F)(F)Cl)cc1C` displayed a melting point of 187 to 188 °C.

The compound `CCCCCCC(C)NC1=NS(=O)(=O)c2sc(Cl)cc2N1` (stereo unspecified) gave a melting point of 179 to 181 °C.

For the compound `C=CCc1c(O)ccc2oc(C(=O)OCC)cc12`, the melting point lay in the range of 94 to 95 °C.

`COc1ccc(OC)c(-c2cn(N=Cc3ccccc3)c(N)n2)c1`: the melting point was 180 to 181 °C.

Take `O=C(O)CN1CCC(Cc2ccccc2)CC1`: the melting point was 250 to 252 °C.

Consider `OC1CCc2c(Br)cccc21` (single isomer, unassigned; (-)), for which the melting point amounted to 81 °C.

`COc1ccc(-c2cc(F)c(F)cc2-c2ccc(S(N)(=O)=O)cc2)cc1F` displayed a melting point of 132 to 133 °C.

Take `CC12C=CC(=O)C=C1CCC1C2C(=O)CC2(C)C(SCc3ccc(Cl)cc3)CCC12` (stereo unspecified): the melting point was 176 to 180 °C.

`Cc1ccccc1-c1nsc(SN)n1` came in with a melting point of 110 to 112 °C.

For `CN1CCN(c2nc3cccccc-3n2)CC1`, the melting point lay in the range of 93 to 95 °C.

With `CC(=O)OCC12CCC(OC(C)=O)CC1CCC1C2CCC2(C)C(OC(=O)C(C)(C)C)CCC12O` (stereo unspecified), the melting point lay within 155 to 156 °C.

As for `O=C(N[C@H]1CCN(C(=O)c2cc(Cl)cc(Cl)c2)[C@H](Cc2ccccc2)C1)c1cc2ccccc2[nH]1` (relative stereo), the melting point was 254 °C.

`CC1Cc2c(c(Cl)cc(Cl)c2-n2nc(C(C)(C)C)oc2=O)O1` (stereo unspecified) had a melting point of 112 to 115 °C.

`CCCCOC(=O)c1cc([N+](=O)[O-])c(Oc2ccc(OCc3ccccc3)cc2)c(S(N)(=O)=O)c1` returned a melting point of 138 to 144 °C.

In turn, `Cc1oc(-c2ccccc2)nc1COc1cccc(CSc2cccc(C(=O)O)c2)c1` displayed a melting point of 129 to 130 °C.

`CN1C(=O)CN(c2ccc(OCc3ccccc3)cc2)NC1=O` registered a melting point of 224 to 227 °C.

In the case of `C[C@@H]1O[C@](C#CC2CC2)(C(F)(F)F)c2c(ccc3c2OCO3)NC1=O` (relative stereo), the melting point lay within 252 to 253 °C.

`CC(COc1ccc(CC2SC(=O)NC2=O)cc1)NCC(O)Cc1ccccc1` (stereo unspecified) had a melting point of 145 to 152 °C.

In turn, `CN1C(=O)CCC2(C)c3ccc(-c4cccs4)cc3CCC12` (stereo unspecified) had a melting point of 193 to 195 °C.

Compound `C[C@H](CSc1nc2ccccc2[nH]1)Nc1nc(Cl)nc2c1ncn2[C@@H]1O[C@H](CO)[C@@H](O)[C@H]1O` came in with a melting point of 213 to 215 °C.

As for `CC(NC(=O)OC(C)(C)C)C1CCN(c2c(F)c(N)c3c(=O)[nH]c(=O)n4c3c2OCC4C)C1` (stereo unspecified), the melting point lay within 136 to 138 °C.

The compound `COC(=O)Nc1ccc(OC(=O)OC)cc1` showed a melting point of 75 to 76 °C.

`O=C1NC=C(C(=O)O)CN1` displayed a melting point of 139 to 141 °C.

For `CCCCCC(C=CC1C(O[Si](C)(C)C(C)(C)C)CC2Cc3c(cccc3OC(=O)c3ccccc3)CC21)O[Si](C)(C)C(C)(C)C` (stereo unspecified), the melting point is 140 to 141 °C.

`CC(C)N(C)S(=O)(=O)NC(=O)c1ccc(F)c([N+](=O)[O-])c1` showed a melting point of 164 to 165 °C.

Consider `CS(=O)(=O)c1ccc(-c2cnn(CC(F)(F)F)c(=O)c2OC2CCc3ccccc32)cc1` (stereo unspecified), for which the melting point fell in the range of 113 to 114 °C.

`CNS(=O)(=O)Cc1ccc(NC(=O)C(F)(F)F)c(Br)c1` showed a melting point of 170 °C.

Compound `Cc1cc(C(O)C(Cl)(Cl)Cl)n(C)c1` (stereo unspecified) returned a melting point of 55 to 57 °C.
